According to PMC11435058, “Synthesis of New Thiazole-Privileged Chalcones as Tubulin Polymerization Inhibitors with Potential Anticancer Activities” (Pharmaceuticals, 2024):

Legend:
Test in all cases: NCI-60 anticancer screen (SRB; single dose and five doses)
BT-549 = conditions: Homo sapiens, BT-549, 48 h, read-out: Growth Percentage
OVCAR-4 = conditions: Homo sapiens, OVCAR-4, 48 h, read-out: Growth Percentage
MOLT-4 = conditions: Homo sapiens, MOLT-4, 48 h, read-out: Growth Percentage
HCC-2998 = conditions: Homo sapiens, HCC 2998, 48 h, read-out: Growth Percentage
UACC-257 = conditions: Homo sapiens, UACC-257, 48 h, read-out: Growth Percentage
U251 = conditions: Homo sapiens, U-251, 48 h, read-out: Growth Percentage
UACC-62 = conditions: Homo sapiens, UACC-62, 48 h, read-out: Growth Percentage
MCF7 = conditions: Homo sapiens, MCF7, 48 h, read-out: Growth Percentage
TK-10 = conditions: Homo sapiens, TK-10, 48 h, read-out: Growth Percentage
RPMI-8226 = conditions: Homo sapiens, RPMI-8226, 48 h, read-out: Growth Percentage
MDA-MB-468 = assay type: cell-based, human; conditions: Homo sapiens, 48 h; MDA-MB-468; dose of 10 μM; read-out: Growth Percentage
Protocol: The methodology of the NCI anticancer screening has been described in detail elsewhere (http://www.dtp.nci.nih.gov). For detailed information, see Appendix A in the Supplementary Materials.
4.2.1. Screening of the anticancer activity against a panel of 60 cell Lines.
The methodology of the NCI anticancer screening has been described in detail elsewhere (http://www.dtp.nci.nih.gov.) Briefly, the primary anticancer assay was performed at approximately 60 human tumor cell lines panel derived from nine neoplastic diseases, in accordance with the protocol of the Drug Evaluation Branch, National Cancer Institute, Bethesda. Tested compounds were added to the culture at a single concentration (10μM) and the cultures were incubated for 48 h. End -point determinations were made with a protein binding dye, SRB. Results for each tested compound was reported as the percent of growth of the treated cells when compared to the untreated control cells. The percentage growth was evaluated spectrophotometrically versus controls not treated with test agents. […]

OVCAR-8 = conditions: Homo sapiens, OVCAR-8, 48 h, read-out: Growth Percentage
SK-MEL-2 = conditions: Homo sapiens, SK-MEL-2, 48 h, read-out: Growth Percentage
NCI-H226 = conditions: Homo sapiens, NCI-H226, 48 h, read-out: Growth Percentage
786-0 = conditions: Homo sapiens, 786-0, 48 h, read-out: Growth Percentage
HCT-15 = conditions: Homo sapiens, HCT-15, 48 h, read-out: Growth Percentage
NCI-H23 = conditions: Homo sapiens, NCI-H23, 48 h, read-out: Growth Percentage
SF-295 = conditions: Homo sapiens, SF-295, 48 h, read-out: Growth Percentage
M14 = conditions: Homo sapiens, M14, 48 h, read-out: Growth Percentage
NCI-H322M = conditions: Homo sapiens, 48 h, read-out: Growth Percentage
LOX IMVI = conditions: Homo sapiens, 48 h, read-out: Growth Percentage
MALME-3M = conditions: Homo sapiens, 48 h, read-out: Growth Percentage
T-47D = conditions: Homo sapiens, T47D, 48 h, read-out: Growth Percentage
COLO 205 = conditions: Homo sapiens, COLO 205, 48 h, read-out: Growth Percentage
HOP-62 = conditions: Homo sapiens, HOP-62, 48 h, read-out: Growth Percentage

Row | Structure (SMILES) | activity at 10 µM (BT-549) [%] | activity at 10 µM (OVCAR-4) [%] | activity at 10 µM (MOLT-4) [%] | activity at 10 µM (HCC-2998) [%] | activity at 10 µM (UACC-257) [%] | activity at 10 µM (U251) [%] | activity at 10 µM (UACC-62) [%] | activity at 10 µM (MCF7) [%] | activity at 10 µM (RPMI-8226) [%] | activity at 10 µM (MDA-MB-468) [%] | activity at 10 µM (OVCAR-8) [%] | activity at 10 µM (SK-MEL-2) [%] | activity at 10 µM (NCI-H226) [%] | activity at 10 µM (786-0) [%] | activity at 10 µM (HCT-15) [%] | activity at 10 µM (NCI-H23) [%] | activity at 10 µM (SF-295) [%] | activity at 10 µM (M14) [%] | activity at 10 µM (NCI-H322M) [%] | activity at 10 µM (LOX IMVI) [%] | also measured
1 | Cc1[nH]c(=S)sc1C(=O)/C=C/c1ccccc1 [2a, (E)-1-(4-Methyl-2-Thioxo-2,3-Dihydrothiazol-5-yl)-3-Phenylprop-2-En-1-One] | 68.8 | 76.4 | 74.2 | 91.3 | 76.2 | 56.9 | 65.3 | 19.8 | 14.1 | 20.8 | 65.8 | 68.2 | 96.5 | 68.1 | 35 | 77.5 | 88.9 | 77.1 | 66.5 | 31.1 | activity at 10 µM (TK-10): 80.3%; activity at 10 µM (MALME-3M): 87.8%
2 | COc1ccc(/C=C/C(=O)c2sc(=S)[nH]c2C)cc1 [2l, (E)-3-(4-Methoxyphenyl)-1-(4-Methyl-2-Thioxo-2,3-Dihydrothiazol-5-yl)Prop-2-En-1-One] | 75 | 72.3 | 81.5 | 101 | 68 | 62.3 | 71.8 | 30.8 | 19.6 | 15.1 | 76.9 | 80.3 | 93.6 | 78.1 | 50.8 | 81.8 | 83.5 | 87.5 | 92.4 | 44.2 | activity at 10 µM (TK-10): 80.9%; activity at 10 µM (MALME-3M): 90%
3 | COc1cccc(/C=C/C(=O)c2sc(=S)[nH]c2C)c1OC [2m, (E)-3-(2,3-Dimethoxyphenyl)-1-(4-Methyl-2-Thioxo-2,3-Dihydrothiazol-5-yl)Prop-2-En-1-One] | 71 | 62.2 | 36.8 | 79.8 | 35.4 | 20.3 | 45.5 | 16.6 | 9.09 | 41.1 | 44.6 | 94.2 | 90.8 |  | 32.7 | 86.5 | 26.3 | 54 | 62.8 | 21.7 | activity at 10 µM (TK-10): 64.5%; activity at 10 µM (T-47D): 34.5%; activity at 10 µM (COLO 205): 103%; activity at 10 µM (HOP-62): 91.8%; activity at 10 µM (MALME-3M): 97.1%
4 | COc1ccc(/C=C/C(=O)c2sc(=S)[nH]c2C)c(OC)c1 [2n, (E)-3-(2,4-Dimethoxyphenyl)-1-(4-Methyl-2-Thioxo-2,3-Dihydrothiazol-5-yl)Prop-2-En-1-One] | 59.8 | 52 | 72.3 | 80.7 | 84.4 | 68.6 | 65.2 | 46 | 35.6 | 19.2 | 81.5 | 64.7 | 79.7 | 85.9 | 45.8 | 72.9 | 72.5 | 75.8 |  | 57.8 | activity at 10 µM (TK-10): 94.1%; activity at 10 µM (T-47D): 30.9%; activity at 10 µM (COLO 205): 123%; activity at 10 µM (HOP-62): 88.8%
5 | Cc1[nH]c(=S)sc1C(=O)/C=C/c1ccccc1Cl [2d, (E)-3-(2-Chlorophenyl)-1-(4-Methyl-2-Thioxo-2,3-Dihydrothiazol-5-yl)Prop-2-En-1-One] | 76.8 | 90.3 | 84.2 | 132 | 87.2 | 63.3 | 72.9 | 28.9 | 28.6 | 30.8 | 85.4 | 84.8 | 89.6 | 93.1 | 57.4 | 91.8 | 82.5 | 82.3 | 106 | 57.5 | activity at 10 µM (T-47D): 47.3%; activity at 10 µM (COLO 205): 118%; activity at 10 µM (HOP-62): 91.7%; activity at 10 µM (MALME-3M): 105%
6 | Cc1[nH]c(=S)sc1C(=O)/C=C/c1cccc(F)c1 [2b, (E)-3-(3-Fluorophenyl)-1-(4-Methyl-2-Thioxo-2,3-Dihydrothiazol-5-yl)Prop-2-En-1-One] | 65.7 | 79.5 | 43.6 | 58.2 | 83.7 | 17.6 | 58.3 | 7.97 | 15.2 | -22.7 | 60.5 | 81.2 | 85.7 | 46.9 | 19.1 | 71.1 | 38.4 | 78.5 | 84.5 | 13.8 | activity at 10 µM (T-47D): 0.69%; activity at 10 µM (COLO 205): 94.5%; activity at 10 µM (HOP-62): 34.8%; activity at 10 µM (MALME-3M): 101%
